Common to all, as to assay: inhibition of tumour cell growth, NCI panel, 48 h
The test system of experiment [1] is SF-539 CNS.
The test system of experiment [2] is SNB-19 CNS.
The test system of experiment [3] is NCI-H460 lung.
In experiment [4] the test system is CCRF-CEM leukemia.
Experiment [5] deals with UACC-257 melanoma.
Experiment [6] concerns UO-31 renal.
In experiment [7] the test system is TK-10 renal.
The subject of experiment [8] is NCI-H226 lung.
Experiment [9] deals with HL-60(TB) leukemia.
In experiment [10] the test system is COLO 205 colon.

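Assay format: 96-well plates, 48-hour exposure. At the GI50, growth is halved. Definition used: TGI = concentration required for complete inhibition of growth.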 Where only a bound is given, the exact number is not on record here.

Consider 10 compounds from PubChem BioAssay (NCI).

As for `c1cc(C2CCCCC2)ccc1-c1cnc2nonc2n1`, the GI50 is 0.548 µM in experiment [1]; 1.46 µM in [2]; 1.38 µM in experiment [3]; 0.408 µM in experiment [4]; 1.28 µM in experiment [5]; 1.18 µM in experiment [6]. Moreover, the GI50 in experiment [7] was 1.28 µM; in experiment [8], 1.75 µM; in experiment [9] it was 0.318 µM; in [10], 1.99 µM. Also, the TGI in experiment [1] is 1.87 µM; in experiment [2] it was 3.55 µM; in experiment [3] it was 3.64 µM; in experiment [4], greater than 93.8 µM; in [5] it was 3.9 µM; in [6], 2.44 µM. Further, the TGI in experiment [7] was 2.79 µM; in experiment [8], 4.22 µM; in experiment [9] it was 1.52 µM; in experiment [10] it was 6.39 µM.
Turning to `Cc1nc2sc(C(=O)Nc3ccccc3)c(N)c2cc1C(O)c1ccccc1` (configuration not stated), the GI50 in [1] was 0.219 µM; in experiment [2], 0.446 µM; in experiment [3], 0.329 µM; in [4], 0.234 µM; in [5], 4.21 µM; in experiment [6], 0.727 µM. Moreover, the GI50 is 6.03 µM in experiment [7], 1.24 µM in experiment [8], 0.234 µM in experiment [9] and 0.376 µM in experiment [10]. Also, the TGI was 0.638 µM in experiment [1]; greater than 100 µM in experiment [2]; 1.73 µM in experiment [3]; greater than 52 µM in experiment [5]; greater than 60.9 µM in experiment [6]; greater than 100 µM in experiment [7]. The TGI was greater than 100 µM in experiment [8], 0.657 µM in [9] and 4.99 µM in experiment [10].
Regarding `CC(C)(C)C(=O)c1c(C(F)(F)F)n([O-])c2cc(Cl)c(Cl)cc2[n+]1=O`, the GI50 was 0.563 µM in experiment [1]; 0.609 µM in experiment [2]; 0.279 µM in [3]; 0.619 µM in [4]; 1.28 µM in [5]; 0.403 µM in experiment [6]. For the same compound, the GI50 was 0.842 µM in [7], 1.6 µM in experiment [8], 0.188 µM in experiment [9] and 0.683 µM in experiment [10]. Further, the TGI in [1] turned out to be 1.04 µM; in experiment [2], 1.28 µM; in [3] it was 0.767 µM; in experiment [4], 1.19 µM; in [5], 2.86 µM; in experiment [6] it was 0.805 µM. The TGI was determined as 2.26 µM in experiment [7], 3.12 µM in [8], 0.446 µM in experiment [9] and 1.69 µM in [10].
Turning to `CC(C)(O)CCc1cccc(C(=O)c2cnn(-c3ccc(F)cc3)c2N)c1`, the GI50 in experiment [1], in experiment [2], in experiment [3], in experiment [4], in [5] and in [6] was greater than 25 µM throughout. For the same compound, the GI50 is greater than 25 µM in experiment [7], greater than 19.7 µM in experiment [8], greater than 25 µM in experiment [9] and greater than 25 µM in experiment [10]. Moreover, the TGI in experiment [1], in [2], in experiment [3], in experiment [4], in experiment [5] and in experiment [6] was greater than 25 µM each time. Moreover, the TGI in [7], in experiment [8], in experiment [9] and in [10] was greater than 25 µM in each case.
In the case of `CNCC(=O)NC(CO)C(=O)NC(CO)C(=O)NC1C(C(N)=O)OC(n2ccc(N)nc2=O)C(O)C1O` (configuration not stated), the GI50 in experiment [1] is 5.01 µg/mL; in [2], 6.5 µg/mL; in experiment [3], 3.39 µg/mL; in experiment [4] it was greater than 50 µg/mL; in experiment [5] it was 13.7 µg/mL; in experiment [6] it was 12.4 µg/mL. In addition, the GI50 in experiment [7] is 11 µg/mL; in experiment [8], 1.65 µg/mL; in experiment [9] it was greater than 50 µg/mL; in [10], greater than 50 µg/mL. Besides, the TGI is 28.7 µg/mL in experiment [1]; 45.1 µg/mL in experiment [2]; 31.3 µg/mL in experiment [3]; greater than 50 µg/mL in [4]; greater than 50 µg/mL in experiment [5]; greater than 50 µg/mL in experiment [6]. The TGI is greater than 50 µg/mL in [7], 13.9 µg/mL in experiment [8], greater than 50 µg/mL in experiment [9] and greater than 50 µg/mL in experiment [10].
As for `CC1=CC(C)(C)Nc2ccc(Cc3ccc4c(c3)C(C)=CC(C)(C)N4)cc21`, the GI50 in experiment [1] was 23.6 µM; in experiment [2], 17.2 µM; in experiment [3], 12 µM; in [4], 4.67 µM; in [5], 7.06 µM; in experiment [6] it was 7.27 µM. In addition, the GI50 in experiment [7] was 16.8 µM; in [8], 20.2 µM; in experiment [9], 5.1 µM; in experiment [10] it was 20.3 µM. Also, the TGI is 89.3 µM in [1]; greater than 100 µM in [2]; 55.1 µM in experiment [3]; 59.6 µM in experiment [4]; 72.1 µM in experiment [5]; 65.8 µM in [6]. Also, the TGI is 92.8 µM in [7], greater than 100 µM in experiment [8], 34.1 µM in experiment [9] and 45.2 µM in experiment [10].
For the compound `O=C1C(Cl)=C(Cl)C(=O)N1c1ccc(F)cc1`, the TGI in experiment [1] is 51.9 µM; in experiment [2], greater than 73.2 µM; in [3] it was greater than 100 µM; in experiment [4] it was 16.5 µM; in experiment [5] it was greater than 100 µM; in experiment [6], 48.8 µM. The TGI in [7] was 35.1 µM; in [8], greater than 77.7 µM; in [9], 11.5 µM; in experiment [10] it was 35.1 µM.
As for `O=C1C(Cl)=C(Nc2cc(Cl)ccc2O)C(=O)N1Cc1ccccc1`, the GI50 in experiment [1] was 20 µM; in [2], 25.4 µM; in experiment [3], 17.7 µM; in [4], 12.5 µM; in experiment [5] it was 14.1 µM; in experiment [6], 32.7 µM. In addition, the GI50 is 21.4 µM in experiment [7], 8.66 µM in [8], 25.6 µM in experiment [9] and 18.3 µM in experiment [10]. Moreover, the TGI was 36.3 µM in experiment [1]; greater than 61.2 µM in [2]; 34.3 µM in experiment [3]; 54.9 µM in experiment [4]; 28.3 µM in experiment [5]; greater than 54.6 µM in experiment [6]. Moreover, the TGI came to 42.9 µM in experiment [7], 21.9 µM in [8], 67.1 µM in experiment [9] and 44.3 µM in experiment [10].
In the case of `C(=C\c1ccncc1)/c1ccncc1`, the GI50 in [1] is greater than 100 µM; in [2], greater than 100 µM; in experiment [3], greater than 100 µM; in [4] it was greater than 100 µM; in experiment [5], greater than 100 µM; in [6], 50.5 µM. Further, the GI50 in experiment [7], in experiment [8], in [9] and in experiment [10] was greater than 100 µM each time. In addition, the TGI in experiment [1], in experiment [2], in experiment [3], in experiment [4], in [5] and in experiment [6] was greater than 100 µM in each case. Moreover, the TGI in experiment [7], in [8], in experiment [9] and in experiment [10] was greater than 100 µM throughout.
In the case of `C[C@@H](CS[As](C)C)C(=O)N1CCC[C@H]1C(=O)O`, the GI50 was 0.131 µM in [1]; 3.76 µM in [2]; 1.4 µM in experiment [3]; 0.142 µM in experiment [4]; 1.45 µM in experiment [5]; 0.0923 µM in experiment [6]. In addition, the GI50 in [7] was 0.268 µM; in [8] it was 0.364 µM; in experiment [9] it was 0.0994 µM; in experiment [10], 0.156 µM. The TGI in experiment [1] came out at 1.41 µM; in experiment [2], 31.2 µM; in [3], 13.7 µM; in [4], 0.643 µM; in [5], 7.8 µM; in experiment [6], 0.8 µM. Further, the TGI in experiment [7] turned out to be 1.11 µM; in experiment [8], 1.65 µM.
